The target of one experiment is BCL2 WT (Homo sapiens (Human), UniProt P10415). The experiment is described as follows: TR-FRET competitive binding assay, BCL2 WT. Conditions: Ki determined from IC50, read-out: TR_FRET EKI_Bcl2 WT. In short, it runs like this:
(§1)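 Terbium-labelled N-terminal Halo-fusion BCL2 or BCLXL (E. coli), 0.5 nM, competed against fluorescein-labelled PUMA peptide (2 or 20 nM) for 2 h at 23° C in 50 mM Hepes pH 7.5, 150 mM NaCl, 5% DMSO. TR-FRET 520/495 nm ratio gave IC50 by four-parameter fit; Ki derived from IC50.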
For orientation: In TR-FRET formats the signal depends on donor and acceptor labels being close together.

Experiment [1] concerns the target BCL2 G101V (Homo sapiens, UniProt P10415, G101V). The experiment can be described thus: TR-FRET competitive binding assay, BCL2 G101V. Particulars: BCL2 G101V; Ki determined from IC50; read-out: TR_FRET EKI_Bcl2 G101V. In short, it runs like this:
as §1

Experiment [2] deals with BCL2 G101V. The experiment can be described thus: TR-FRET competitive binding assay, BCL2 G101V. Conditions: ratio Ki BCL2 G101V / Ki BCL2 WT. Details: species or system human. In short, it runs like this:
as §1

For another experiment, the target named is BCL2 D103Y (Homo sapiens, UniProt P10415, D103Y). The experiment can be described thus: TR-FRET competitive binding assay, BCL2 D103Y. Conditions: Ki determined from IC50, read-out: TR_FRET EKI_Bcl2 D103Y. In short, it runs like this:
as §1

The next experiment concerns the target BCLXL WT (Homo sapiens (Human), UniProt Q07817). The experiment can be described thus: TR-FRET competitive binding assay, BCLXL WT. Conditions: for Ki: BCLXL WT, Ki determined from IC50, read-out: TR_FRET EKI BclxL; for TR_FRET EKI BCLxL/WT selectivty ratio: ratio Ki BCLxL / Ki BCL2 WT. In short, it runs like this: as §1
For the next experiment, the system named is KMS-12-PE Bcl-2 WT. The experiment can be described thus: In vitro cytotoxicity CellTiter-Glo 48 h, KMS-12-PE Bcl-2 WT. In kind it is cell-based. Conditions: Homo sapiens, KMS-12-PE, C50 = concentration needed to reach 50% of the cellular viability. In short, it runs like this: (§2)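 Potency is expressed as C50, the compound concentration at which viability of engineered KMS-12-PE cells (Bcl-2 wild type or G101V) falls to 50%, determined from CellTiter-Glo luminescence after 48 h of treatment over 11 concentrations.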

Another experiment has as its system KMS-12-PE Bcl-2 G101V. The experiment can be described thus: In vitro cytotoxicity CellTiter-Glo 48 h, KMS-12-PE Bcl-2 G101V. In kind it is cell-based. Conditions: for Ratio (G101V/WT): C50 KMS-12-PE Bcl-2 G101V over C50 KMS-12-PE Bcl-2 WT; for IC50: Homo sapiens, KMS-12-PE, 48 h, CellTiter-Glo, C50 = concentration needed to reach 50% of the cellular viability. In short, it runs like this: as §2
On the technique in general: Cellular ATP, detected with luciferase, serves as a proxy for viable cell number.

BCLXL WT, sequence (Q07817 other isoform, or with tags, fused parts or gaps): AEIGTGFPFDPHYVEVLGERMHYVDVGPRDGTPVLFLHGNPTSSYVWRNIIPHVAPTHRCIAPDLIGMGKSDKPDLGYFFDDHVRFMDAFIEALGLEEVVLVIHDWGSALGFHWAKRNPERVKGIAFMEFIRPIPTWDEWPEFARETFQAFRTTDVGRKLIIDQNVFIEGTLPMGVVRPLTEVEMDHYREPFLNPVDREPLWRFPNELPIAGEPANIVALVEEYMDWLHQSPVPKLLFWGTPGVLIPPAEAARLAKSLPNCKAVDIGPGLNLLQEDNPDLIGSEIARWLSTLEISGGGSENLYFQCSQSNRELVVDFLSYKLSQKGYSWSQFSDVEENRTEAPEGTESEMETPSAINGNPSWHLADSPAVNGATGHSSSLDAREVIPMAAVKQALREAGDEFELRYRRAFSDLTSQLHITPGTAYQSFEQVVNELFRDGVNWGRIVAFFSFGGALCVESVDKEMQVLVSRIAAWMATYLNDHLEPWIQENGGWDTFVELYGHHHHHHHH

Usually IC50 stands for the concentration at which inhibition is half-maximal. The low end stands for greater potency, the high end for weaker potency. Consider `Cc1c(C(=O)N(c2ccc(O)cc2)c2cc(C#N)n(C(F)F)c2C)cc(-c2cc3c(cc2C(=O)N2Cc4ccccc4C[C@H]2CN2CCCCC2)CN(C(=O)Cc2ccc(OCCN(C)C4CC4)cc2)CC3)n1C` [Example 163, N-[5-cyano-1-(difluoromethyl)-2-methyl-pyrrol-3-yl]-5-[2-[2-[4-[2-[cyclopropyl(methyl)amino]ethoxy]phenyl]acetyl]-7-[(3S)-3-(1-piperidylmethyl)-3,4-dihydro-1H-isoquinoline-2-carbonyl]-3,4-dihydro-1H-isoquinolin-6-yl]-N-(4-hydroxyphenyl)-1,2-dimethyl-pyrrole-3-carboxamide], for which the Ki at BCL2 WT was 0.16 nM; on BCL2 G101V [1], 0.8 nM; on BCL2 D103Y, 0.64 nM; at BCLXL WT, 8.3 nM. In addition, the “TR_FRET EKI G101V/WT selectivty ratio” value in the experiment on BCL2 G101V [2] is 5.3. Moreover, on BCLXL WT, the “TR_FRET EKI BCLxL/WT selectivty ratio” value was 51.9. Also, the IC50 in the experiment with KMS-12-PE Bcl-2 WT amounted to 0.01 µM; with KMS-12-PE Bcl-2 G101V it was 0.0597 µM. Also, the “Ratio (G101V/WT)” value with KMS-12-PE Bcl-2 G101V came to 5.97.

On to `COc1ncc(N(C(=O)c2cc(-c3cc4c(cc3C(=O)N3Cc5ccccc5C[C@H]3CN3CCCCC3)CN(C(=O)Cc3ccc(OCCN5CCOCC5)cc3F)CC4)n(C)c2C)c2ccc(O)cc2)cc1F` [Example 164, 5-[2-(2-{2-fluoro-4-[2-(morpholin-4-yl)ethoxy]phenyl}acetyl)-7-{[(3S)-3-(piperidin-1-ylmethyl)-3,4-dihydro-1H-isoquinolin-2-yl]carbonyl}-3,4-dihydro-1H-isoquinolin-6-yl]-N-(5-fluoro-6-methoxypyridin-3-yl)-N-(4-hydroxyphenyl)-1,2-dimethylpyrrole-3-carboxamide], for which the Ki on BCL2 WT was 0.08 nM; on BCL2 G101V [1], 0.6 nM; at BCL2 D103Y, 0.13 nM; on BCLXL WT, 9.3 nM. The “TR_FRET EKI G101V/WT selectivty ratio” value with BCL2 G101V [2] came out at 7.5. The “TR_FRET EKI BCLxL/WT selectivty ratio” value on BCLXL WT was 120.8. Moreover, the IC50 with KMS-12-PE Bcl-2 WT came to 0.0054 µM; in the experiment on KMS-12-PE Bcl-2 G101V, 0.0497 µM. The “Ratio (G101V/WT)” value with KMS-12-PE Bcl-2 G101V came out at 9.1529.

In the case of `COc1ccc(N(C(=O)c2cc(-c3cc4c(cc3C(=O)N3Cc5ccccc5C[C@H]3CN3CCCCC3)CN(C(=O)Cc3ccc(OCCN5CCOCC5)cc3F)CC4)n(C)c2C)c2ccc(O)cc2)cn1` [Example 165, 5-[2-(2-{2-fluoro-4-[2-(morpholin-4-yl)ethoxy]phenyl}acetyl)-7-{[(3S)-3-(piperidin-1-ylmethyl)-3,4-dihydro-1H-isoquinolin-2-yl]carbonyl}-3,4-dihydro-1H-isoquinolin-6-yl]-N-(4-hydroxyphenyl)-N-(6-methoxypyridin-3-yl)-1,2-dimethylpyrrole-3-carboxamide], the Ki at BCL2 WT is 0.04 nM; on BCL2 G101V [1], 0.8 nM; at BCL2 D103Y, 0.13 nM; on BCLXL WT, 10 nM. Besides, the “TR_FRET EKI G101V/WT selectivty ratio” value with BCL2 G101V [2] is 21.1. Besides, on BCLXL WT, the “TR_FRET EKI BCLxL/WT selectivty ratio” value is given as 277.8. Further, the figures for the concentration for half-maximal inhibition (IC50) in the experiment on KMS-12-PE Bcl-2 WT and in the experiment on KMS-12-PE Bcl-2 G101V were 0.0092 µM and 0.0828 µM, respectively. The “Ratio (G101V/WT)” value in the experiment with KMS-12-PE Bcl-2 G101V was 9.0393.

With `Cc1c(N(C(=O)c2cc(-c3cc4c(cc3C(=O)N3Cc5ccccc5C[C@H]3CN3CCCCC3)CN(C(=O)Cc3ccc(OCCN5CCOC[C@H]5C)cc3F)CC4)n(C)c2C)c2ccc(O)cc2)cc(C#N)n1C` [Example 166, N-(5-cyano-1,2-dimethylpyrrol-3-yl)-5-{2-[2-(2-fluoro-4-{2-[(3R)-3-methylmorpholin-4-yl]ethoxy}phenyl)acetyl]-7-{[(3S)-3-(piperidin-1-ylmethyl)-3,4-dihydro-1H-isoquinolin-2-yl]carbonyl}-3,4-dihydro-1H-isoquinolin-6-yl}-N-(4-hydroxyphenyl)-1,2-dimethylpyrrole-3-carboxamide], the Ki amounted to 0.04 nM on BCL2 WT, 0.3 nM at BCL2 G101V [1], 0.16 nM on BCL2 D103Y and 2.7 nM at BCLXL WT. In addition, the “TR_FRET EKI G101V/WT selectivty ratio” value with BCL2 G101V [2] amounted to 5.8. In addition, the “TR_FRET EKI BCLxL/WT selectivty ratio” value on BCLXL WT was 62.8. For the same compound, the IC50 with KMS-12-PE Bcl-2 WT came out at 0.0045 µM; in the experiment with KMS-12-PE Bcl-2 G101V, 0.0298 µM. In addition, in the experiment with KMS-12-PE Bcl-2 G101V, the “Ratio (G101V/WT)” value is on record as 6.5639.

The values are drawn from US20250179047A1, “5-[7-(3,4-DIHYDRO-1H-ISOQUINOLINE-2-CARBONYL)-1,2,3,4 TETRAHYDROISOQUINOLIN-6-YL]-1H-PYRROLE-3-CARBOXAMIDE DERIVATIVES, PHARMACEUTICAL COMPOSITIONS CONTAINING THEM AND THEIR USES AS PRO-APOPTOTIC AGENTS” (LES LABORATOIRES SERVIER, priority 2022, published 2025).
